Experimental data taken from US9062037B2, “Tazarotene derivatives” (Stiefel Laboratories, Inc., priority 2009, dated 2015).
Read-outs that look alike come from different tables or passages of the source.

Columns and labels:
in vitro = settings: human, liver microsomes, pH 7.4, Half-life, HLM
Experimental: Hepatic microsomal reactions were carried out in microcentrifuge tubes in the following manner. Human liver microsomes (0.5 or 1.0 mg/ml protein), Test Article (1 or 10 μM), paraoxon (0, 10 or 100 μM), NADPH regenerating system (10 mM glucose-6-phosphate, 1 unit/ml glucose-6-phosphate dehydrogenase, 1 mM NADP^+), magnesium chloride (5 mM) in 0.1 M potassium phosphate buffer, pH 7.4 were incubated at 37° C. in a shaking water bath. Reactions were initiated with the addition of substrate with the exception of the zero-time incubations. The total reaction volume was 0.2 ml. The reactions were incubated for 15, 30, 45 or 60 minutes, terminated with 0.2 ml ice-cold acetonitrile and then placed on ice. For zero-time incubations, ice cold acetonitrile was added to the mixture containing microsomes, along with NADPH regenerating system, magnesium chloride in phosphate buffer and the Test Article. Each time point was carried out in triplicate.
Disappearance of Test Article and formation of metabolites following in vitro metabolism were determined by LC-MS/MS using multiple reaction monitoring. LightSight® software (Applied Biosystems, Foster City, Calif.) was used to generate the mass spectrometry methods and carry out the data mining.
Control incubations were carried out with the identical incubation procedures as described above with the following exceptions. In negative control reactions, microsomes were not included. […] Duplicate reactions with an initial concentration of 10 μM were incubated for 0 or 30 minutes. Microsomal metabolic stability of 7-ethoxycoumarin was determined by LC-MS/MS.

[1] = Stability in human plasma at room temperature; format: in vitro ADME
Experimental: (§1) Tazarotene, tazarotene sulfoxide and tazarotene benzoate were incubated at room temperature with human and rat plasma. The incubation was carried out in duplicate and samples were taken at specific time points for stability analyses (i) rat samples (0 hour, 2 hours and 4 hours) and (ii) human samples (0 hour, 2 hours, 4 hours and 8 hours). Samples were analyzed by LC-MS/MS.

SkinEthic RHE cultures = assay: IL-1α and IL-8 activity assay in SkinEthic RHE cultures; format: cell-based, human; settings: 6 μl test article, 72 hours
Experimental: SkinEthic RHE cultures were transferred into 6-well plates containing 1.0 mL/well growth media. The cultures were equilibrated at 37° C. and the media was changed daily. The cultures were subsequently placed in 60 mm petri dishes containing 3.5 mL growth media. 6 μl aliquots of the Test Articles shown in Table 3 were applied to duplicate cultures. The cultures were incubated at 37° C. for 72 hours. At the end of the incubation period, the growth media was collected and stored at −20° C. The tissues were cut in half and one half was placed in 10% NBF for histology, while the other half was placed in RNAlater™ solution (Ambion). The following analyses were performed: a) IL-1α and IL-8 activity assay; b) Hand E staining; c) Immunohistochemistry for K10, K19 and filaggrin; and d) qRT-PCR to quantitate K10, K19 and filaggrin expression.

[2] = test system: Reconstructed human epidermis (RHE) tissues; assay: RT-qPCR gene expression of K10, K19, filaggrin, K4 and K13 in reconstructed human epidermis (RHE) cultures; format: cell-based; settings: 72 h, 2.83 mM in OD/10% DMSO, 6 μl
Experimental: Reconstructed human epidermis (RHE) tissues were cultured in-house as previously described by Poumay et al. Briefly, polycarbonate culture inserts (12 mm diameter and 0.4 μm pore size, Millipore) were filled with 150 μL of a suspension containing approximately 5×10^5 primary adult human keratinocytes. The inserts received another 500 μL of keratinocyte culture media and were placed in a 6-well plate (1 insert/well) containing 2.5 mL of RHE Growth Media (Epilife media +1.5 mM CaCl2). RHE cultures were incubated at 37° C. in a humidified atmosphere containing 5% CO2, for 24 hours. Subsequently (on Day 0), RHE cultures were exposed to the air-liquid interface by removing the RHE Growth Media from the top of the cultures, and replacing with 1.5 mL/well of RHE Growth Media containing 50 μg/mL vitamin C. Media was changed every other day until the cultures were dosed with Test Articles. A stock solution of 0.1% tazarotene (2.83 mM at 99.5% purity) in OD/10% DMSO was prepared. For tazarotene benzoate, hydroxytazarotenic acid, keto tazarotenic acid, keto tazarotene, and tazarotene nicotinate, a 10 mg/mL stock solution (in DMSO) was already prepared. From this stock solution, a 2.83 mM working solution (in octyldodecanol) was prepared. All other tested compounds were resuspended in DMSO and OD to obtain a final concentration of 2.83 mM in OD/10% DMSO. On Day 12, the cultures were placed in 60 mm petri dishes containing 3 mL of RHE Growth Media (+VitC). Test articles (6 μl) were applied to triplicate cultures and cultures were incubated at 37° C. for 72 hours. Untreated and OD alone served as negative controls. At the end of the incubation period, the growth media was collected and stored at −20° C. The tissues were cut in half: one half was placed in 10% NBF for histology, and the other half was placed in RNAlater™ solution for RT-qPCR. RNA was isolated and concentrations were determined using a NanoDrop spectrophotometer. In addition to using the same amount of RNA for each sample, data was normalized to internal GAPDH mRNA levels and is expressed as relative quantification (RQ) to untreated controls. RNA extracts from each replicate were amplified using RT-qPCR. The relative gene expression of five biomarkers was determined: Keratin 10, Keratin 19, Filaggrin, Keratin 4, and Keratin 13.

[3] = Stability in rat plasma at room temperature; format: in vitro ADME
Experimental: as §1

[4] = HPLC analysis of mixtures of DUAC gel and TAZORAC cream (degradation of tazarotene in the presence of benzoyl peroxide); format: physicochemical; settings: fresh samples
Experimental: DUAC® gel (1% clindamycin and 5% benzoyl peroxide marketed by Stiefel Laboratories, Inc.) and TAZORAC® cream (0.1% tazarotene marketed by Allergan, Inc.) have been successfully used to treat facial acne. However, these topical treatments are not approved for concomitant use. To study whether tazarotene is susceptible to oxidative decomposition by benzoyl peroxide, an in vitro laboratory study was conducted wherein a mixture of DUAC gel and TAZORAC cream was prepared.
Samples were prepared by taking equal portions of DUAC gel and TAZORAC cream and mixing them thoroughly at room temperature with a spatula in a suitable container to form a uniform mixture. The initial samples were analyzed immediately by HPLC. The other samples were placed into an oven at 35° C. and removed for analysis after one, two, four, six and eight hours. An allowance was made for product evaporation over the course of the study.

[5] = In vitro application of DUAC gel/TAZORAC cream mixture to split-thickness human skin; tazarotene and degradants quantified by LC/MS/MS; format: in vitro ADME; settings: for detected in the receiving medium (passing through the skin): DUAC/TAZORAC mixture applied to split-thickness human skin
Experimental: An in vitro study was conducted to assess the formation of tazarotene degradants following the application of a mixture of DUAC gel and TAZORAC cream to human skin.
Equal portions of DUAC gel and TAZORAC cream were dispensed into a glass vial and mixed for approximately three minutes with a metal spatula to ensure a homogenous mixture. Samples of European DUAC gel and US DUAC gel were used in separate experiments. […] The test mixtures were then applied to the surface of split-thickness skin (˜0.25 mm) at a dose of 15.6 mg/cm^2 and spread evenly using a positive displacement pipette.
After 2 and 6 hours, the skin samples were washed, tape stripped twice, and then the epidermis was peeled from the dermis using a heat block. The skin samples were then extracted with acetonitrile overnight at 4° C. The distribution of tazarotene and its degradants within the epidermis, dermis and surface wash were quantified by LC/MS/MS with a 50 pg/mL LOQ. The experiments were performed under yellow light conditions. For the purposes of comparison, mixtures of DUAC gel and TAZORAC cream were also prepared and retained for stability testing at 0, 2 and 6 hour time points.

[6] = read-out: K4 Fold Change vs Untreated/OD controls (upregulation)
[7] = read-out: K13 Fold Change vs Untreated/OD controls (upregulation)
[8] = read-out: K19 Fold Change vs Untreated/OD controls (upregulation)

Compound | half-life at 1 µM (in vitro; Complete) [min] | half-life at 1 µM (in vitro; Without NADPH) [min] | half-life at 10 µM (in vitro; Complete) [min] | half-life at 10 µM (in vitro; Without NADPH) [min] | concentration in human plasma ([1]; 0 hour) [ng/mL] | concentration in human plasma ([1]; 2 hours) [ng/mL] | concentration in human plasma ([1]; 4 hours) [ng/mL] | concentration in human plasma ([1]; 8 hours) [ng/mL] | IL-1α activity compared to untreated and vehicle controls (SkinEthic RHE cultures) | fold induction at 2830 µM [2, 6] | fold induction at 2830 µM [2, 7] | fold induction at 2830 µM [2, 8] | concentration in rat plasma ([3]; 0 hour) [ng/mL] | concentration in rat plasma ([3]; 2 hours) | concentration in rat plasma ([3]; 4 hours) | % Label Tazarotene Benzoate ([4]; 35° C., 4 hours) [% Label] | detectable in epidermis and dermis samples ([5]; 2 and 6 hours post-application, all samples including the placebo) | detected in the receiving medium (passing through the skin) [5] | quantity in stability samples at the 6 hour time point relative to the 2 hour time point ([5]; mixture of DUAC gel and TAZORAC cream retained for stability testing) | tazarotene lost ([4]; mixture of DUAC gel and TAZORAC cream, after four hours)
CCOC(=O)c1ccc(C#Cc2ccc3c(c2)C(C)(C)CC(OC(=O)c2ccccc2)S3)nc1 (stereo not drawn) [Compound 4, 6-(2-(2-benzoyloxy-4,4-dimethylthiochroman-6-yl)ethynyl)nicotinic acid, ethyl ester] | 7.76 | 7.19 | 71.4 | 47.5 | 52.0 | 52.0 | 50.0 | 45.8 | only slightly increased | 29 | 7 | 8 | 59.8 | 15.0 ng/mL | 2.29 ng/mL | ~6.3 | detectable in all samples | could not be detected | significant increase | 
CCOC(=O)c1ccc(C#Cc2ccc3c(c2)C(C)(C)CCS3)nc1 [Tazarotene, ethyl 6-[2-(4,4-dimethylthiochroman-6-yl)-ethynyl nicotinate] | 7.88 | 7.71 | 8.38 | 7.58 | 17.1 | 17.1 | 16.6 | 17.5 | only slightly increased | 103 to 180 | 12 | 33 to 43 | 16.4 | <LOD | <LOD |  |  | could not be detected |  | approximately 22%
